Test results taken from PubChem BioAssay (NCI).
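Values below derive from 48-hour exposures of cells grown in 96-well plates, with endpoints linearly interpolated between the two concentrations bracketing the appropriate inhibition level. TGI marks complete inhibition of growth.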

Legend:
Assay in all cases: NCI tumour cell line growth inhibition, 48 h
[1] = test system: IGROV1 ovarian
[2] = test system: ACHN renal
[3] = test system: COLO 205 colon
[4] = test system: UO-31 renal
[5] = test system: SN12C renal
[6] = test system: M14 melanoma
[7] = test system: HS 578T breast
[8] = test system: MOLT-4 leukemia
[9] = test system: HCT-116 colon
[10] = test system: NCI/ADR-RES ovarian
[11] = test system: K-562 leukemia
[12] = test system: NCI-H460 lung
[13] = test system: PC-3 prostate
[14] = test system: A549 NSCLC
[15] = test system: MCF7 breast
[16] = test system: A498 renal
[17] = test system: NCI-H23 lung
[18] = test system: UACC-257 melanoma
[19] = test system: SK-MEL-28 melanoma
[20] = test system: HOP-92 NSCLC
[21] = test system: HCC-2998 colon
[22] = test system: HT29 colon
[23] = test system: SF-539 CNS
[24] = test system: MDA-MB-231 breast
[25] = test system: NCI-H522 lung
[26] = test system: SR leukemia
[27] = test system: U251 CNS
[28] = test system: SF-268 CNS
[29] = test system: KM12 colon
[30] = test system: SK-OV-3 ovarian
[31] = test system: HCT-15 colon
[32] = test system: OVCAR-4 ovarian
[33] = test system: HL-60(TB) leukemia
[34] = test system: OVCAR-8 ovarian
[35] = test system: RPMI-8226 leukemia
[36] = test system: TK-10 renal
[37] = test system: CAKI-1 renal
[38] = test system: RXF 393 renal
[39] = test system: EKVX NSCLC
[40] = test system: OVCAR-3 ovarian
[41] = test system: NCI-H226 lung
[42] = test system: SW-620 colon
[43] = test system: SK-MEL-2 melanoma
[44] = test system: SNB-75 CNS
[45] = test system: BT-549 breast
[46] = test system: OVCAR-5 ovarian
[47] = test system: 786-0 renal
[48] = test system: CCRF-CEM leukemia
[49] = test system: HOP-62 NSCLC
[50] = test system: SK-MEL-5 melanoma
[51] = test system: SF-295 CNS
[52] = test system: MDA-MB-435
[53] = test system: T-47D breast
[54] = test system: SNB-19 CNS
[55] = test system: LOX IMVI melanoma
[56] = test system: UACC-62 melanoma
[57] = test system: DU-145 prostate

Compound: CN(C)c1ccc(/C=C(\NC(=O)c2ccccc2)C(=O)NC(CC(=O)O)C(=O)O)cc1 (configuration not stated)
- TGI [1]: > 100 µM
- TGI [2]: > 100 µM
- TGI [3]: > 100 µM
- TGI [4]: > 100 µM
- TGI [5]: > 100 µM
- TGI [6]: > 100 µM
- TGI [7]: > 100 µM
- TGI [8]: > 100 µM
- TGI [9]: > 100 µM
- TGI [10]: > 100 µM
- TGI [11]: 33.3 µM
- TGI [12]: > 100 µM
- TGI [13]: > 100 µM
- TGI [14]: > 100 µM
- TGI [15]: > 100 µM
- TGI [16]: > 100 µM
- TGI [17]: > 100 µM
- TGI [18]: > 100 µM
- TGI [19]: > 100 µM
- TGI [20]: > 100 µM
- TGI [21]: > 100 µM
- TGI [22]: > 100 µM
- TGI [23]: > 100 µM
- TGI [24]: > 100 µM
- TGI [25]: 46.8 µM
- TGI [26]: > 100 µM
- TGI [27]: > 100 µM
- TGI [28]: > 100 µM
- TGI [29]: > 100 µM
- TGI [30]: > 100 µM
- TGI [31]: > 100 µM
- TGI [32]: > 100 µM
- TGI [33]: > 100 µM
- TGI [34]: > 100 µM
- TGI [35]: > 100 µM
- TGI [36]: > 100 µM
- TGI [37]: > 100 µM
- TGI [38]: > 100 µM
- TGI [39]: > 100 µM
- TGI [40]: > 100 µM
- TGI [41]: > 100 µM
- TGI [42]: > 100 µM
- TGI [43]: > 100 µM
- TGI [44]: 94.5 µM
- TGI [45]: > 100 µM
- TGI [46]: > 100 µM
- TGI [47]: > 100 µM
- TGI [48]: > 100 µM
- TGI [49]: > 100 µM
- TGI [50]: > 100 µM
- TGI [51]: > 100 µM
- TGI [52]: > 100 µM
- TGI [53]: > 100 µM
- TGI [54]: > 100 µM
- TGI [55]: > 100 µM
- TGI [56]: > 100 µM
- TGI [57]: > 100 µM
